Laboratory results: patent EP2311818B1, “Combination of a 5-phenylthiazole compound as PI3 kinase inhibitor with an antiinflammatory, bronchodilatory or antihistamine drug” (Novartis AG, priority 2003, dated 2003)

What follows are compounds tested against T1, recombinant GST-p110y (Homo sapiens, UniProt P48736) (assay: in vitro PI3Kγ kinase assay (Scintillation Proximity Assay, transfer of terminal phosphate of ATP to phosphatidylinositol)). Conditions: 12.5 µM ATP, 15 µg/ml phosphatidylinositol, room temperature, 60 minutes.
T1 construct: Residues 38-1102 of human P13Ky are subcloned into the BamH1 and EcoR1 sites; made in house; host or cells: Sf9 (Spodoptera frugiperda) insect cells, baculovirus
Assay type: biochemical
Description: To express the recombinant protein, Sf9 (Spodoptera frugiperda 9) insect cells are routinely maintained at densities between 3 X 10^5 and 3 X 10^6 cells/ml in serum containing TNMFH medium (Sigma). Sf9 cells, at a density of 2 X 10^6 are infected with human GST-P13KγΔ34 baculovirus at a multiplicity of infection (m.o.i.) of 1 for 72 hours. The infected cells are harvested by centrifugation at 1400 g for 4 minutes at 4° C and the cell pellets are frozen at -80° C. […] The unbound flow through sample is collected by centrifugation at 1000g for 5 minutes at 4° C using a DENLEY™ centrifuge. The 1 ml GST resin containing bound material is transferred to a 15 ml FALCON™ centrifuge tube for subsequent washing and elution steps. Firstly a series of 3 cycles of washings (mixing by gentle inversion) is performed with 15 ml ice cold wash Buffer A (50 mM Tris-HCl pH 7.5, 1 % Triton X-100, 2 mM DTT) interspersed with centrifugation at 1000g for 5 minutes at 4° C. A final single wash step is performed with 15 ml ice cold wash Buffer B (50mM Tris-HCl pH 7.5, 2 mM DTT) and then centrifuged at 1000g for 5 minutes at 4° C. The washed GST resin is finally eluted with 4 cycles of 1 ml ice cold elution buffer (50 mM Tris-HCl pH 7.5, 10 mM reduced glutathione, 2 mM DTT, 150 mM NaCl, 1 mM NaF, 50% ethylene glycol and protease inhibitors) interspersed with centrifugation at 1000g for 5 minutes at 4° C.. Samples are aliquoted and stored at -20° C.
An in vitro kinase assay was established that measures the transfer of the terminal phosphate of adenosine triphosphate to phosphatidylinositol. The kinase reaction is performed in a white 96 well microtitre plate as a Scintillation Proximity Assay. […] The reaction is started by the addition of 20 µl of enzyme mix (40 mM Tris, 200 mM NaCl, 2 mM EGTA containing recombinant GST-p110y).

T1 sequence (P48736 38-1102): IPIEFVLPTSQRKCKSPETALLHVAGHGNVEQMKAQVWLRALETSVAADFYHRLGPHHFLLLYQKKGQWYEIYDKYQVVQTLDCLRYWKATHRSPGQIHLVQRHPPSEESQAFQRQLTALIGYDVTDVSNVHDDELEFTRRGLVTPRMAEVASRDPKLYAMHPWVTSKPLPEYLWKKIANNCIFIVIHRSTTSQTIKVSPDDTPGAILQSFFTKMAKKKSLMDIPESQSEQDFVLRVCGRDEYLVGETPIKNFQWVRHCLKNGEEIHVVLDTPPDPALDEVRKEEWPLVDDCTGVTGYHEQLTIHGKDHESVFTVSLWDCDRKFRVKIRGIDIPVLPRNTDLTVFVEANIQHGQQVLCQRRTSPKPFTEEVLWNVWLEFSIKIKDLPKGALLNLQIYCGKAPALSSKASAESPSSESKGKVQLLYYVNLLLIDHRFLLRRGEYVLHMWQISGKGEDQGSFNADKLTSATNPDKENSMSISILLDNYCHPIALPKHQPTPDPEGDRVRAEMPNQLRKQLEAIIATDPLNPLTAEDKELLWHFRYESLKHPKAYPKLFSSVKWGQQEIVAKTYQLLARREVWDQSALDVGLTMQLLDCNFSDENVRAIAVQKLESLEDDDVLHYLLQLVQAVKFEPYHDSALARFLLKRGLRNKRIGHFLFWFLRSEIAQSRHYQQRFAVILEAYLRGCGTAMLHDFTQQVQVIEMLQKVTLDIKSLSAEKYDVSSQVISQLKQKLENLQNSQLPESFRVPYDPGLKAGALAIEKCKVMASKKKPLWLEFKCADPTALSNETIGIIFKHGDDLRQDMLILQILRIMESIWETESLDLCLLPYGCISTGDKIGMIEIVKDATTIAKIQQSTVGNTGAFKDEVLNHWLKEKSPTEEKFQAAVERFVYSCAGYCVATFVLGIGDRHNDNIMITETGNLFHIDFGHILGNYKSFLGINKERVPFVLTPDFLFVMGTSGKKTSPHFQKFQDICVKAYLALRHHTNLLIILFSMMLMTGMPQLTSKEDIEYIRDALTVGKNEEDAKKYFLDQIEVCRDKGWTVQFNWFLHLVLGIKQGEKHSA

| SMILES | IC50 [nM] |
| --- | --- |
| CC(=O)Nc1nc(C)c(-c2ccc(Cl)c(S(C)(=O)=O)c2)s1 [Example 48, N-[5-(4-Chloro-3-methanesulfonyl-phenyl)-4-methyl-thiazol-2-yl]-acetamide] | 18 |
| CCc1cnc(CCNC(=O)Nc2nc(C)c(-c3ccc(S(C)(=O)=O)c(F)c3)s2)o1 [Example 178] | 40 |
| CCOC(=O)CCNC(=O)Nc1nc(C)c(-c2ccc(S(C)(=O)=O)c(F)c2)s1 [Example 165, 3-{3-[5-(3-Fluoro-4-methanesulfonyl-phenyl)-4-met4l-thiazol-2-yl]-ureido}-propionic acid ethyl ester] | 19 |

These reach a lower IC50. Values come first.

| IC50 [nM] | SMILES |
| --- | --- |
| 13 | CC(=O)Nc1nc(C)c(-c2ccc(S(C)(=O)=O)c(-n3ccnc3)c2)s1 [Example 80, N-[5-(3-Imidazol-1-yl-4-methanesulfonyl-phenyl)-4-methyl-thiazol-2-yl]-acetamide] |
| 9 | CC(=O)Nc1nc(C)c(-c2cc(Br)c(S(N)(=O)=O)c(Br)c2)s1 [Example 8, N-[5-(3.5-Dibromo-4-sulfamoyl-phenyl)-4-methyl-thiazol-2-yl]-acetamide] |
| 5 | Cc1nc(NC(N)=O)sc1-c1ccc(Cl)c(S(C)(=O)=O)c1 [Example 138, [5-(4-chloro-3-methanesulfonyl-phenyl)-4-methyl-thiazol-2-yl]-urea] |
